This is an account of results in ChEMBL document CHEMBL1129258, “Synthesis and structure-activity relationships of 2-pyridones: a novel series of potent DNA gyrase inhibitors as antibacterial agents” (J Med Chem, 1996).

Broadly, the ED50 is the dose that gives a 50% effect, or the effect in half of the subjects.

Converted amounts (≈) assume the structure as drawn.

Assay [1] concerns the target T1, DNA gyrase (Staphylococcus aureus) (UniProt P0A0K8+P20831). Kind of assay: In vitro antibacterial activity against gram-positive organism Staphylococcus aureus ATCC 6538p. It is filed as functional.
Assay [2] concerns the target T2, DNA gyrase (Escherichia coli) (UniProt P0AES6+P0AES4). Kind of assay: In vitro antibacterial activity against gram-negative organism […] ATCC 13048. Type of assay: functional. Particulars: Enterobacter aerogenes.
The target in assay [3] is T2, DNA gyrase (Escherichia coli). Description: In vitro antibacterial activity against gram-positive organism Enterococcus faecium ATCC 8043. Type of assay: functional.
For assay [4] the target is unchanged. Kind of assay: In vitro antibacterial activity against gram-negative organism Klebsiella pneumoniae ATCC 8045. Type of assay: functional.
For assay [5] the target is unchanged. Description: In vivo efficacy against Escherichia coli JUHL after oral administration. It is filed as functional, organism-based. The note with it: Escherichia coli K-12.
Assay [6] has the same target. Description: In vivo efficacy against Escherichia coli JUHL by subcutaneous administration. Particulars: Escherichia coli K-12. Type of assay: functional, organism-based.
A short description of assay [7]: In vivo efficacy against Pseudomonas aeruginosa 5007 after subcutaneous administration. Type of assay: functional. The note with it: Pseudomonas aeruginosa, sc; read-out: ED50.
In assay [8] the target is T2, DNA gyrase (Escherichia coli). Kind of assay: In vitro antibacterial activity against gram-positive organism Streptococcus bovis A-5169. Type of assay: functional. The note with it: Streptococcus equinus.
Assay [9] is described as follows: In vitro antibacterial activity against gram-negative organism Pseudomonas aeruginosa DPHD-2862. Type of assay: functional. Particulars: Pseudomonas aeruginosa; read-out: MIC.
For assay [10], the target named is T1, DNA gyrase (Staphylococcus aureus). Description: In vitro antibacterial activity against gram-positive organism Staphylococcus aureus NCTC-10649M. It is filed as functional.
Assay [11] shares this target. Kind of assay: In vivo efficacy against Staphylococcus aureus NCTC-10649M after subcutaneous administration. Type of assay: functional, organism-based.
For assay [12] the target is unchanged. Description: In vivo efficacy against Staphylococcus aureus NCTC-10649M after oral administration. It is filed as functional, organism-based.
In assay [13] the target is T2, DNA gyrase (Escherichia coli). Description: In vitro antibacterial activity against gram-negative organism Prov. stuartii CMX-640. It is filed as functional. The note with it: Providencia stuartii.
The test system of another assay is Pseudomonas aeruginosa. Description: In vivo efficacy against Pseudomonas aeruginosa 5007 following p.o. administration.
The target in assay [14] is T1, DNA gyrase (Staphylococcus aureus). Kind of assay: In vitro antibacterial activity against gram-positive organism Staphylococcus aureus 1775. It is filed as functional.
Assay [15] has as its target T2, DNA gyrase (Escherichia coli). Description: In vitro antibacterial against gram-negative organism Escherichia coli JUHL. Type of assay: functional. Particulars: Escherichia coli K-12.
The nature of assay [16]: In vitro antibacterial activity against gram-negative organism Pseudomonas aeruginosa 5007. The note with it: Pseudomonas aeruginosa; read-out: MIC. It is filed as functional.
In a further assay the test system is Enterococcus faecalis. Description: Inhibitory activity against enterococcus faecalis Van B. Type of assay: functional.
A further assay has as its system Enterococcus faecium. Description: Inhibitory activity against enterococcus faecium Van A. It is filed as functional.
The test system of another assay is Streptococcus pneumoniae. Kind of assay: In vivo efficacy against Strep. administration. Type of assay: functional.
The target in assay [17] is T2, DNA gyrase (Escherichia coli). Particulars: Escherichia coli K-12.
Description: Concentration which causes 50% of the gyrase (Escherichia coli H560)-mediated maximal DNA cleavage.
The subject of another assay is Streptococcus pyogenes. Kind of assay: In vitro antibacterial activity against gram-positive organism Streptococcus pyogenes EES61. Type of assay: functional. Particulars: Streptococcus pyogenes; read-out: MIC.

T1 sequence (P0A0K8 2-644 limits assumed): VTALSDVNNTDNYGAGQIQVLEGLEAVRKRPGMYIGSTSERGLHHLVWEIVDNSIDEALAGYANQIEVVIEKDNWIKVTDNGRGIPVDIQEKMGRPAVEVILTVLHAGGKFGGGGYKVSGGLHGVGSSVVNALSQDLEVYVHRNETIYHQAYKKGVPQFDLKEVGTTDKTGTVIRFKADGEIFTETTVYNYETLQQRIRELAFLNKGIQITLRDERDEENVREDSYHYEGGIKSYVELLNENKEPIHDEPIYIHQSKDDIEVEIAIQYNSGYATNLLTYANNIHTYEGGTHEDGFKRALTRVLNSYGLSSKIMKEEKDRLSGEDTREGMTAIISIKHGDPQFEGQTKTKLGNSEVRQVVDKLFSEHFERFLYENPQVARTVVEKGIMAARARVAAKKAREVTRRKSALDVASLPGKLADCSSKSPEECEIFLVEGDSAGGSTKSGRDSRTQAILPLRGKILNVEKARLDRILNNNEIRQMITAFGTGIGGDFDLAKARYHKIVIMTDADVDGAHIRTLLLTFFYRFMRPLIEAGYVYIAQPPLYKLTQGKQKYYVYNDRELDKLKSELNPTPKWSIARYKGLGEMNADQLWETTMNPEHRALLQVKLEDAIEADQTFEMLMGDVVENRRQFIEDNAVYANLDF
T1 sequence (P20831 whole entry partner): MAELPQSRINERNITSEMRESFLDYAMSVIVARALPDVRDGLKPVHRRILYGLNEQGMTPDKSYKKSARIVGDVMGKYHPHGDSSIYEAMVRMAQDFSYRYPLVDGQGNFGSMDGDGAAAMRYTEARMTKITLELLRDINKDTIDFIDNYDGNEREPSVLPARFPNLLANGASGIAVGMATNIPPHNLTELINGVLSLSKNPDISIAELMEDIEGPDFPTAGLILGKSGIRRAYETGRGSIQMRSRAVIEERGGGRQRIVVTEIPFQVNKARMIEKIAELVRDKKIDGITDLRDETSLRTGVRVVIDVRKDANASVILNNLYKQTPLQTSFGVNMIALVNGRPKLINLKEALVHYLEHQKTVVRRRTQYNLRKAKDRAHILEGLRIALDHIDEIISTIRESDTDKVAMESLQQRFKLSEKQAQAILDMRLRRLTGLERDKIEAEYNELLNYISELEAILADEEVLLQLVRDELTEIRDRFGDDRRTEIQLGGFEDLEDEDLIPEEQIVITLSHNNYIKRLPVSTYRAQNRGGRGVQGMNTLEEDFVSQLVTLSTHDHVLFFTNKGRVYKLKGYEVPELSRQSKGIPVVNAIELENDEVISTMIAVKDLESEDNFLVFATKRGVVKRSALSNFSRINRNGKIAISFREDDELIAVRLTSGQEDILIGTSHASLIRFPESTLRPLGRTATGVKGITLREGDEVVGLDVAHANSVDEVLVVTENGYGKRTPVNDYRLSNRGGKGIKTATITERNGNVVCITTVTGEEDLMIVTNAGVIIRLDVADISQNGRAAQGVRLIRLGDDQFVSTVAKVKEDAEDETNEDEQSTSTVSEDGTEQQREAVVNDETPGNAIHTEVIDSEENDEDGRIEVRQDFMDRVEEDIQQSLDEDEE

In the case of `Cc1c(N2C[C@H]3CCN[C@H]3C2)c(F)cn2c(=O)c(C(=O)O)cc(C3CC3)c12` (single isomer, unassigned), the MIC came to 0.05 µg/mL (≈ 0.135 µM) in [1]; 0.05 µg/mL (≈ 0.135 µM) in assay [2]; 0.2 µg/mL (≈ 0.538 µM) in assay [3]; 0.02 µg/mL (≈ 0.0538 µM) in [4]; 0.39 µg/mL (≈ 1.05 µM) in assay [8]; 6.2 µg/mL (≈ 16.7 µM) in [9]. The MIC in assay [10] is 0.1 µg/mL (≈ 0.269 µM); in [13], 0.39 µg/mL (≈ 1.05 µM); in [14] it was 6.2 µg/mL (≈ 16.7 µM); in assay [15], 0.05 µg/mL (≈ 0.135 µM); in assay [16], 0.39 µg/mL (≈ 1.05 µM). Also, the ED50 was found to be 1.1 mg/kg in [5]; 0.5 mg/kg in [6]; 5 mg/kg in assay [7]; 0.6 mg/kg in [11]; 1.5 mg/kg in [12]; 17.9 mg/kg in the assay with Pseudomonas aeruginosa.

`Cl.O=C(O)c1cn(C2CC2)c2cc(N3CCNCC3)c(F)cc2c1=O` [CIPROFLOXACIN HYDROCHLORIDE]: the MIC is 0.2 µg/mL in assay [1]; 1 µg/mL against Enterococcus faecalis; 4 µg/mL with Enterococcus faecium; 0.39 µg/mL in [10]; greater than 100 µg/mL in assay [14].

For the molecule `CN[C@H](CC(C)C)C(=O)N[C@H]1C(=O)N[C@@H](CC(N)=O)C(=O)N[C@H]2C(=O)N[C@H]3C(=O)N[C@H](C(=O)N[C@H](C(=O)O)c4cc(O)cc(O)c4-c4cc3ccc4O)[C@H](O)c3ccc(c(Cl)c3)Oc3cc2cc(c3O[C@@H]2O[C@H](CO)[C@@H](O)[C@H](O)[C@H]2O[C@H]2C[C@](C)(N)[C@H](O)[C@H](C)O2)Oc2ccc(cc2Cl)[C@H]1O` [VANCOMYCIN], the values for the MIC with Enterococcus faecalis and against Enterococcus faecium were 32 µg/mL (≈ 22.1 µM) and greater than 128 µg/mL, respectively.

Consider `Cc1c(N2C[C@@H]3[C@@H](N)[C@@H]3C2)c(F)cn2c(=O)c(C(=O)O)cc(C3CC3)c12`, for which the MIC came to 0.02 µg/mL (≈ 0.056 µM) in assay [1]; 0.02 µg/mL (≈ 0.056 µM) in assay [2]; 0.1 µg/mL (≈ 0.28 µM) in [3]; 0.01 µg/mL (≈ 0.028 µM) in [4]; 0.1 µg/mL (≈ 0.28 µM) in assay [8]; 6.2 µg/mL (≈ 17.3 µM) in assay [9]. Besides, the MIC was determined as 0.02 µg/mL (≈ 0.056 µM) in [10]; 0.78 µg/mL (≈ 2.18 µM) in assay [13]; 0.1 µg/mL (≈ 0.28 µM) in the assay on Streptococcus pyogenes; 1.56 µg/mL (≈ 4.37 µM) in [14]; 0.01 µg/mL (≈ 0.028 µM) in assay [15]; 0.2 µg/mL (≈ 0.56 µM) in [16]. The median effective dose (ED50) in assay [5] was greater than 10 mg/kg; in assay [6], 1.4 mg/kg; in [7] it was 18 mg/kg; in the assay with Streptococcus pneumoniae it was 6.7 mg/kg; in assay [11], 4.1 mg/kg; in [12] it was 14.6 mg/kg. The molecule also returned an ED50 in the assay on Pseudomonas aeruginosa greater than 50 mg/kg. This molecule registered a CC50 in assay [17] of 0.3 µg/mL (≈ 0.839 µM).

As to `CC(NC1CCN(c2nc3c(-c4ccc(F)cc4F)cc(C(=O)O)c(=O)n3cc2F)C1)C(=O)O` (stereo not drawn), the ED50 was 16.6 mg/kg in assay [5]; less than 2.5 mg/kg in [6]; 34.4 mg/kg in assay [7]; 79.8 mg/kg in the assay on Streptococcus pneumoniae; 164 mg/kg with Streptococcus pneumoniae (Streptococcus pneumoniae, read-out: ED50); 2.7 mg/kg in assay [11]. The ED50 was determined as 14.4 mg/kg in assay [12] and 68.8 mg/kg in the assay with Pseudomonas aeruginosa.

Regarding `Cc1c(N2C[C@@H]3CCCN[C@@H]3C2)c(F)cn2c(=O)c(C(=O)O)cc(C3CC3)c12` (stereo in doubt; (S,S)45n), the MIC in [1] worked out at 0.01 µg/mL (≈ 0.0259 µM); in [2], 0.02 µg/mL (≈ 0.0519 µM); in assay [3] it was 0.1 µg/mL (≈ 0.259 µM); in [4], 0.01 µg/mL (≈ 0.0259 µM); in assay [8], 0.05 µg/mL (≈ 0.13 µM); in assay [10], 0.01 µg/mL (≈ 0.0259 µM). Further, the values for the MIC in [13], in [14] and in [15] were 0.39 µg/mL (≈ 1.01 µM), 0.39 µg/mL (≈ 1.01 µM) and 0.005 µg/mL (≈ 0.013 µM), respectively. Further, the ED50 in assay [5] worked out at 1 mg/kg; in [11] it was 0.5 mg/kg; in assay [12], 2.5 mg/kg; in the assay with Pseudomonas aeruginosa, 21.4 mg/kg.

Take `Cc1c(N2C[C@H]3CCC[C@@H](N)[C@H]3C2)c(F)cn2c(=O)c(C(=O)O)cc(C3CC3)c12`: the MIC in assay [1] stood at 0.005 µg/mL (≈ 0.0125 µM); in [2], 0.1 µg/mL (≈ 0.25 µM); in assay [3] it was 0.02 µg/mL (≈ 0.0501 µM); in assay [4] it was 0.02 µg/mL (≈ 0.0501 µM); in assay [8], 0.002 µg/mL (≈ 0.00501 µM); in assay [9], 6.2 µg/mL (≈ 15.5 µM). In addition, the MIC in assay [10] stood at 0.005 µg/mL (≈ 0.0125 µM); in assay [13], 0.39 µg/mL (≈ 0.976 µM); with Streptococcus pyogenes, 0.005 µg/mL (≈ 0.0125 µM); in assay [14] it was 0.1 µg/mL (≈ 0.25 µM); in assay [15] it was 0.01 µg/mL (≈ 0.025 µM); in assay [16], 0.39 µg/mL (≈ 0.976 µM). In addition, the ED50 in [11] was found to be 0.3 mg/kg; in assay [12], 1.4 mg/kg.

As to `Cc1c(N2C[C@@H]3CCN[C@@H]3C2)c(F)cn2c(=O)c(C(=O)O)cc(C3CC3)c12` (stereo in doubt; 45o), the MIC is 0.02 µg/mL (≈ 0.0538 µM) in assay [1]; 0.05 µg/mL (≈ 0.135 µM) in [2]; 0.05 µg/mL (≈ 0.135 µM) in assay [3]; 0.01 µg/mL (≈ 0.0269 µM) in assay [4]; 0.05 µg/mL (≈ 0.135 µM) in assay [8]; 0.02 µg/mL (≈ 0.0538 µM) in [10]. The MIC in assay [13] amounted to 0.78 µg/mL (≈ 2.1 µM); in [14], 0.39 µg/mL (≈ 1.05 µM); in [15], 0.02 µg/mL (≈ 0.0538 µM). In addition, the ED50 in assay [5] stood at 2.5 mg/kg; in assay [6] it was 0.4 mg/kg; in assay [11], 0.7 mg/kg; in assay [12], 5 mg/kg. Moreover, in assay [17], the CC50 amounted to 0.1 µg/mL (≈ 0.269 µM).
